# Experimental data: ChEMBL document CHEMBL1155206, “Synthesis and in vitro evaluation of 2,4-diamino-1,3,5-triazine derivatives as neuronal voltage-gated sodium channel blockers” (Bioorg Med Chem Lett, 2009)
# Tests used:
# [1] = Displacement of [3H]BTX-B from neurotoxin site 2 of voltage gated sodium channel in rat cerebral cortex synaptoneurosomes after 30 mins by scintillation counting; assay type: tissue-based
# Dihydrofolate reductase = target: T1, Dihydrofolate reductase (Bos taurus, UniProt P00376); test: Inhibition of bovine liver DHFR assessed as NADPH consumption during conversion of dihydrofolic acid to tetrahydrofolic acid
# T1 sequence (P00376 whole entry): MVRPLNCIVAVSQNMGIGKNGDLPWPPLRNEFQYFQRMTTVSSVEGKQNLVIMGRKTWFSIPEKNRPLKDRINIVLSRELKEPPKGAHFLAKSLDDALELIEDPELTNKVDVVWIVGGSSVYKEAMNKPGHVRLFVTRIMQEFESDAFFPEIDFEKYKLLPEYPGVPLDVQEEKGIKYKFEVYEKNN
smiles,measurement,setting,value
CC1(C)N=C(N)N=C(Nc2ccccc2Br)N1,IC50,[1],57.5 µM
same,IC50,Dihydrofolate reductase,> 100 µM
Cc1nc(N)nc(Nc2ccc(Cl)c(Cl)c2)n1,IC50,[1],274 µM
same,IC50,Dihydrofolate reductase,> 100 µM
Nc1nc(CCl)nc(Nc2cccc(Br)c2)n1,IC50,[1],172 µM
same,IC50,Dihydrofolate reductase,> 100 µM
CC1(C)N=C(N)N=C(N)N1Cc1ccc(Cl)c(Cl)c1,IC50,[1],19 µM
same,IC50,Dihydrofolate reductase,12.8 µM
NC1=NC2(CCCCC2)N(c2ccccc2)C(N)=N1,IC50,[1],14.7 µM
same,IC50,Dihydrofolate reductase,> 100 µM
NC1=NC2(CCCCC2)N(c2ccc(Cl)cc2)C(N)=N1,IC50,[1],4.4 µM
same,IC50,Dihydrofolate reductase,> 100 µM
COc1ccc(NC2=NC(N)=NC(C)(C)N2)cc1,IC50,[1],207 µM
same,IC50,Dihydrofolate reductase,> 100 µM
Cc1cccc(N2C(N)=NC(N)=NC23CCCCC3)c1,IC50,[1],4.7 µM
same,IC50,Dihydrofolate reductase,> 100 µM
CC1(C)N=C(N)N=C(Nc2ccccc2Cl)N1,IC50,[1],85.5 µM
same,IC50,Dihydrofolate reductase,> 100 µM
CC1(C)N=C(N)N=C(N)N1Cc1ccccc1,IC50,[1],53.2 µM
same,IC50,Dihydrofolate reductase,19.5 µM
Cc1ccccc1N1C(N)=NC(N)=NC12CCCCC2,IC50,[1],9.1 µM
same,IC50,Dihydrofolate reductase,> 100 µM
CC1(C)N=C(N)NC(Nc2ccc(Br)cc2)=N1,IC50,[1],18.4 µM
same,IC50,Dihydrofolate reductase,> 100 µM
CC1(C)N=C(N)N=C(Nc2ccc(Cl)cc2)N1,IC50,[1],24.7 µM
same,IC50,Dihydrofolate reductase,> 100 µM
Nc1nc(CCl)nc(Nc2ccc(Cl)c(Cl)c2)n1,IC50,[1],168 µM
same,IC50,Dihydrofolate reductase,> 100 µM
O=C1NC(=O)C(c2ccccc2)(c2ccccc2)N1 [PHENYTOIN],IC50,[1],126 µM
same,IC50,Dihydrofolate reductase,> 100 µM
Cc1ccccc1NC1=NC(N)=NC(C)(C)N1,IC50,[1],582 µM
same,IC50,Dihydrofolate reductase,> 100 µM
COc1ccc(N2C(N)=NC(N)=NC23CCCCC3)cc1,IC50,[1],7.8 µM
same,IC50,Dihydrofolate reductase,> 100 µM
COc1ccccc1N1C(N)=NC(N)=NC12CCCCC2,IC50,[1],12.3 µM
same,IC50,Dihydrofolate reductase,> 100 µM
Cc1ccc(NC2=NC(N)=NC(C)(C)N2)cc1,IC50,[1],71.5 µM
same,IC50,Dihydrofolate reductase,> 100 µM
Cc1nc(N)nc(Nc2cccc(Br)c2)n1,IC50,[1],198 µM
same,IC50,Dihydrofolate reductase,> 100 µM
COc1cccc(N2C(N)=NC(N)=NC23CCCCC3)c1,IC50,[1],5.1 µM
same,IC50,Dihydrofolate reductase,> 100 µM
NC1=NC2(CCCCC2)N(c2ccccc2Cl)C(N)=N1,IC50,[1],13 µM
same,IC50,Dihydrofolate reductase,> 100 µM
Cc1nc(N)nc(Nc2cccc(Cl)c2)n1,IC50,[1],246 µM
same,IC50,Dihydrofolate reductase,> 100 µM
Cc1ccc(CN2C(N)=NC(N)=NC2(C)C)cc1,IC50,[1],32.2 µM
same,IC50,Dihydrofolate reductase,24.6 µM
CC1(C)N=C(N)N=C(N)N1Cc1ccc(Cl)cc1,IC50,[1],35.3 µM
same,IC50,Dihydrofolate reductase,29.9 µM
COc1ccccc1NC1=NC(N)=NC(C)(C)N1,IC50,[1],343 µM
same,IC50,Dihydrofolate reductase,> 100 µM
CC1(C)N=C(N)N=C(Nc2ccccc2)N1,IC50,[1],259 µM
same,IC50,Dihydrofolate reductase,> 100 µM
Nc1nc(CCl)nc(Nc2cccc([N+](=O)[O-])c2)n1,IC50,[1],190 µM
same,IC50,Dihydrofolate reductase,> 100 µM
COc1cccc(NC2=NC(N)=NC(C)(C)N2)c1,IC50,[1],76.2 µM
same,IC50,Dihydrofolate reductase,> 100 µM
COc1ccc(CN2C(N)=NC(N)=NC2(C)C)cc1,IC50,[1],59.8 µM
same,IC50,Dihydrofolate reductase,58.8 µM
CC1(C)N=C(N)N=C(Nc2cccc(Br)c2)N1,IC50,[1],12.6 µM
same,IC50,Dihydrofolate reductase,> 100 µM
Cc1ccc(N2C(N)=NC(N)=NC23CCCCC3)cc1,IC50,[1],4.2 µM
same,IC50,Dihydrofolate reductase,> 100 µM
CC1(C)N=C(N)N=C(Nc2cccc(Cl)c2)N1,IC50,[1],16.5 µM
same,IC50,Dihydrofolate reductase,> 100 µM
Cc1cccc(NC2=NC(N)=NC(C)(C)N2)c1,IC50,[1],186 µM
same,IC50,Dihydrofolate reductase,> 100 µM
NC1=NC2(CCCCC2)N(c2cccc(Cl)c2)C(N)=N1,IC50,[1],4 µM
same,IC50,Dihydrofolate reductase,> 100 µM
